Two compounds from ChEMBL document CHEMBL1201862, “PubChem BioAssay data set” (2004) can be followed below.

Test systems include M19-MEL; MDA-MB-435; UACC-257; 786-0; COLO 205; IGROV-1; CAKI-1; SF-268; HCT-15; SK-OV-3; BT-549; NCI/ADR-RES; M14; Hs-578T; RPMI-8226; DU-145; K562; MDA-MB-231; NCI-H226; RXF 393.
Holding throughout (test): NCI tumour cell line growth inhibition, 48 h

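Where inhibition never reached the appropriate level, the endpoint shown equals the highest concentration tested. Otherwise, values were interpolated linearly from a five-concentration, 48-hour dose response in 96-well plates. Here, GI50 denotes the concentration required for 50% inhibition of growth.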 Calls of active or inactive are those of the source. Rule as the data show it: active = GI50 up to about 1.1 µM and inactive = higher. Some results are limits rather than exact numbers.

For `CC(=O)NCCCCCCNC(C)=O` [HEXAMETHYLENEBISACETAMIDE], the GI50 was 5.75 mM (inactive) in the experiment on M19-MEL; 4.01 mM (inactive) in the experiment on MDA-MB-435; 7.08 mM (inactive) in the experiment with UACC-257; > 10 mM (inactive) with 786-0; 5.38 mM (inactive) in the experiment with COLO 205; 9.18 mM (inactive) in the experiment with IGROV-1. The GI50 is 1.79 mM (inactive) with CAKI-1; 8.91 mM (inactive) in the experiment with SF-268; 5.53 mM in the experiment with HCT-15; 8.93 mM (inactive) in the experiment with SK-OV-3; > 10 mM (inactive) with BT-549; 7.41 mM (inactive) with NCI/ADR-RES. The GI50 was 6.04 mM (inactive) with M14; 5.79 mM (inactive) in the experiment on Hs-578T; 4.65 mM (inactive) in the experiment on RPMI-8226; > 8.83 mM (inactive) in the experiment on DU-145; 5.74 mM (inactive) with K562; 4.18 mM (inactive) in the experiment with MDA-MB-231. The GI50 in the experiment with NCI-H226 was 6.81 mM (inactive); with RXF 393 it was 9.86 mM (inactive).
For the compound `COc1ccc2nc3cc(Cl)ccc3c(NCCC[N+](C)(C)CCCCCCCCCCCCCCCC[N+](C)(C)CCCNc3c4ccc(Cl)cc4nc4ccc(OC)cc34)c2c1`, the GI50 is 0.00197 mM (inactive) with M19-MEL; 0.00243 mM (inactive) in the experiment with UACC-257; 0.00363 mM (inactive) with 786-0; 0.00183 mM (inactive) in the experiment on COLO 205; 0.0027 mM (inactive) with IGROV-1; 0.0106 mM (inactive) in the experiment on CAKI-1. Further, the GI50 with SF-268 is 0.00211 mM (inactive); in the experiment with HCT-15, 0.00585 mM; with SK-OV-3, 0.00433 mM (inactive); with M14, 0.0047 mM (inactive); in the experiment with RPMI-8226 it was 0.00147 mM (inactive); in the experiment with K562, 0.00185 mM (inactive). For the same compound, the GI50 is 0.00394 mM (inactive) with NCI-H226 and 0.00284 mM (inactive) with RXF 393.
